Data on 8 compounds can be found in PMC6901909, “Synergy Pattern of Short Cationic Antimicrobial Peptides Against Multidrug-Resistant Pseudomonas aeruginosa” (Frontiers in Microbiology, 2019).

Holding throughout (experiment): microbe, parasite or virus in culture
Assay type in all cases: cell-based, Pseudomonas aeruginosa

The test system of one test is MDR P. aeruginosa PA 927. The following applies: conventional antibiotics, microdilution, Mueller-Hinton broth, 2–5 10^5 CFU/ml, 18 h at 37°C, read visually, at least three repeats (n = 3). Summed up: (§1)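 Inoculum 2–5 10^5 CFU/ml in Mueller-Hinton broth, compounds twofold serially diluted, polypropylene microtiter plates. Strains are MDR isolates from clinical and municipal waste water.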
On the technique in general: Broth dilution looks for growth in wells or tubes with falling amounts of substance.

Another test concerns MDR P. aeruginosa PA 910. Summed up: as §1
A further test relates to MDR P. aeruginosa PA 919. To be noted: conventional antibiotics, microdilution, Mueller-Hinton broth, 2–5 10^5 CFU/ml, 18 h at 37°C, read visually, at least three repeats (n = 3). Summed up:
as §1

The next test relates to MDR P. aeruginosa PA253. The following applies: conventional antibiotics, microdilution, Mueller-Hinton broth, 2–5 10^5 CFU/ml, 18 h at 37°C, read visually, at least three repeats (n = 3). The gist of the method:
as §1

The subject of a further test is MDR P. aeruginosa PA 915. The following applies: conventional antibiotics, microdilution, Mueller-Hinton broth, 2–5 10^5 CFU/ml, 18 h at 37°C, read visually, at least three repeats (n = 3). The gist of the method:
as §1

In another test the test system is P. aeruginosa PA01-wt. To be noted: conventional antibiotics, microdilution, Mueller-Hinton broth, 2–5 10^5 CFU/ml, 18 h at 37°C, read visually, at least three repeats (n = 3).
A further test relates to MDR P. aeruginosa PA 923. To be noted: conventional antibiotics, microdilution, Mueller-Hinton broth, 2–5 10^5 CFU/ml, 18 h at 37°C, read visually, at least three repeats (n = 3). The gist of the method: as §1
Where [1] appears, read: Pseudomonas aeruginosa, 18 h, antibiotic alone, as listed in the FIC table, read-out: MIC against PA910 in μM (antibiotics, head of Table 4).
Setting [2] is: Pseudomonas aeruginosa, conventional antibiotics, microdilution, Mueller-Hinton broth, 2–5 10^5 CFU/ml, 18 h at 37°C, read visually, at least three repeats (n = 3), read-out: MIC PA 910.

Converted amounts (≈) assume the structure as drawn. Read-outs that look alike come from different tables or passages of the source. Bridge positions count the residues as written; N and C are the ends. Square brackets hold non-standard residues; d marks the D form. Peptide text beside a SMILES is read from it. * marks the point of attachment. X1 = CC[C@H](C)CCCCC(=O)*; Dab = NCC[C@H](N)C(=O)O

Take `CNC(C)C1CCC(N)C(OC2C(N)CC(N)C(OC3OCC(C)(O)C(NC)C3O)C2O)O1` (stereo not shown) [Gentamycin]: the MIC in the test on MDR P. aeruginosa PA 927 (Pseudomonas aeruginosa) was 128 µM (≈ 61.1 µg/mL); in the test with MDR P. aeruginosa PA 910 (setting [1]), 128 µM; with MDR P. aeruginosa PA 910 (setting [2]) it was 128 µM (≈ 61.1 µg/mL); in the test on MDR P. aeruginosa PA 919 (Pseudomonas aeruginosa), 128 µM (≈ 61.1 µg/mL); in the test with MDR P. aeruginosa PA253 (Pseudomonas aeruginosa), above 256 µM; in the test with MDR P. aeruginosa PA 915 (Pseudomonas aeruginosa), 128 to 256 µM (≈ 61.1 to 122 µg/mL). Further, the MIC is 1 µM (≈ 0.478 µg/mL) in the test on P. aeruginosa PA01-wt (Pseudomonas aeruginosa, PA01WT) and 128 µM (≈ 61.1 µg/mL) in the test on MDR P. aeruginosa PA 923 (Pseudomonas aeruginosa).
As to `C[C@@H](O)[C@H]1C(=O)N2C(C(=O)O)=C(SCCN=CN)C[C@H]12` [Imipenem], the MIC in the test on MDR P. aeruginosa PA 927 (Pseudomonas aeruginosa) is above 128 µM; in the test with MDR P. aeruginosa PA 910 (setting [1]) it was above 128 µM; in the test on MDR P. aeruginosa PA 910 (setting [2]) it was above 128 µM; against MDR P. aeruginosa PA 919 (Pseudomonas aeruginosa) it was 16 µM (≈ 4.79 µg/mL); in the test with MDR P. aeruginosa PA253 (Pseudomonas aeruginosa) it was above 128 µM; in the test with MDR P. aeruginosa PA 915 (Pseudomonas aeruginosa), above 128 µM. For the same compound, the MIC is 2 µM (≈ 0.599 µg/mL) with P. aeruginosa PA01-wt (Pseudomonas aeruginosa, PA01WT) and above 128 µM in the test with MDR P. aeruginosa PA 923 (Pseudomonas aeruginosa).
Take `C[C@@H](O)[C@H]1C(=O)N2C(C(=O)O)=C(S[C@@H]3CN[C@H](C(=O)N(C)C)C3)[C@H](C)[C@H]12` [Meropenem]: the MIC with MDR P. aeruginosa PA 927 (Pseudomonas aeruginosa), in the test on MDR P. aeruginosa PA 910 (setting [1]), in the test with MDR P. aeruginosa PA 910 (setting [2]), against MDR P. aeruginosa PA 919 (Pseudomonas aeruginosa), in the test on MDR P. aeruginosa PA253 (Pseudomonas aeruginosa) and against MDR P. aeruginosa PA 915 (Pseudomonas aeruginosa) was above 128 µM throughout. The MIC was 2 to 4 µM (≈ 0.767 to 1.53 µg/mL) in the test with P. aeruginosa PA01-wt (Pseudomonas aeruginosa, PA01WT) and above 128 µM in the test on MDR P. aeruginosa PA 923 (Pseudomonas aeruginosa).
For the compound `CCN1CCN(C(=O)N[C@@H](C(=O)N[C@@H]2C(=O)N3[C@@H]2SC(C)(C)[C@@H]3C(=O)O)c2ccccc2)C(=O)C1=O` [Piperacillin], the MIC against MDR P. aeruginosa PA 927 (Pseudomonas aeruginosa) is 256 µM (≈ 132 µg/mL); in the test on MDR P. aeruginosa PA 910 (setting [1]), 64 to 128 µM; in the test on MDR P. aeruginosa PA 910 (setting [2]), 64 to 128 µM (≈ 33.1 to 66.2 µg/mL); against MDR P. aeruginosa PA 919 (Pseudomonas aeruginosa), 64 µM (≈ 33.1 µg/mL); against MDR P. aeruginosa PA253 (Pseudomonas aeruginosa), above 256 µM; against MDR P. aeruginosa PA 915 (Pseudomonas aeruginosa), above 256 µM. Besides, the MIC was found to be 4 µM (≈ 2.07 µg/mL) in the test on P. aeruginosa PA01-wt (Pseudomonas aeruginosa, PA01WT) and 128 µM (≈ 66.2 µg/mL) in the test on MDR P. aeruginosa PA 923 (Pseudomonas aeruginosa).
Take `CC[C@H](C)CCCCC(=O)N[C@@H](CCN)C(=O)N[C@H](C(=O)N[C@@H](CCN)C(=O)N[C@H]1CCNC(=O)[C@H]([C@@H](C)O)NC(=O)[C@H](CCN)NC(=O)[C@H](CCN)NC(=O)[C@H](CC(C)C)NC(=O)[C@@H](Cc2ccccc2)NC(=O)[C@H](CCN)NC1=O)[C@@H](C)O` [Polymyxin B] (X1-[Dab]T[Dab][Dab][Dab][dF]L[Dab][Dab]T; lactam 4-C (inferred); N-terminus assumed): the MIC with MDR P. aeruginosa PA 927 came out at 0.25 µM (≈ 0.301 µg/mL); with MDR P. aeruginosa PA 910 (antibiotic alone, as listed in the FIC table, read-out: MIC against PA910 in μM (antibiotics, head of Table 4)) it was 0.13 µM; with MDR P. aeruginosa PA 910 (conventional antibiotics, microdilution, Mueller-Hinton broth, 2–5 10^5 CFU/ml, 18 h at 37°C, read visually, at least three repeats (n = 3), read-out: MIC PA 910), 0.125 µM (≈ 0.15 µg/mL); with MDR P. aeruginosa PA 919, 0.125 µM (≈ 0.15 µg/mL); in the test with MDR P. aeruginosa PA253, 0.125 µM (≈ 0.15 µg/mL); in the test with MDR P. aeruginosa PA 915, 0.25 µM (≈ 0.301 µg/mL). The MIC is given as 0.125 µM (≈ 0.15 µg/mL) in the test with P. aeruginosa PA01-wt and 0.25 µM (≈ 0.301 µg/mL) in the test with MDR P. aeruginosa PA 923.
For `CN(C)[C@@H]1C(O)=C(C(N)=O)C(=O)[C@@]2(O)C(O)=C3C(=O)c4c(O)cccc4[C@@](C)(O)[C@H]3C[C@@H]12` [Tetracyclin], the MIC is 16 µM (≈ 7.11 µg/mL) in the test on MDR P. aeruginosa PA 927 (Pseudomonas aeruginosa); 64 µM in the test with MDR P. aeruginosa PA 910 (setting [1]); 64 µM (≈ 28.4 µg/mL) in the test on MDR P. aeruginosa PA 910 (setting [2]); 32 µM (≈ 14.2 µg/mL) in the test on MDR P. aeruginosa PA 919 (Pseudomonas aeruginosa); 32 µM (≈ 14.2 µg/mL) with MDR P. aeruginosa PA253 (Pseudomonas aeruginosa); 16 µM (≈ 7.11 µg/mL) in the test with MDR P. aeruginosa PA 915 (Pseudomonas aeruginosa). The MIC against P. aeruginosa PA01-wt (Pseudomonas aeruginosa, PA01WT) was 8 µM (≈ 3.56 µg/mL); in the test on MDR P. aeruginosa PA 923 (Pseudomonas aeruginosa), above 512 µM.
Take `NC[C@H]1O[C@H](O[C@H]2[C@H](O)[C@@H](O[C@H]3O[C@H](CO)[C@@H](O)[C@H](N)[C@H]3O)[C@H](N)C[C@@H]2N)[C@H](N)C[C@@H]1O` [Tobramycin]: the MIC with MDR P. aeruginosa PA 927 (Pseudomonas aeruginosa) was found to be 32 µM (≈ 15 µg/mL); in the test on MDR P. aeruginosa PA 910 (setting [1]), 32 µM; with MDR P. aeruginosa PA 910 (setting [2]) it was 32 µM (≈ 15 µg/mL); against MDR P. aeruginosa PA 919 (Pseudomonas aeruginosa), 64 µM (≈ 29.9 µg/mL); in the test on MDR P. aeruginosa PA253 (Pseudomonas aeruginosa), 64 µM (≈ 29.9 µg/mL); against MDR P. aeruginosa PA 915 (Pseudomonas aeruginosa), 64 µM (≈ 29.9 µg/mL). The MIC in the test with P. aeruginosa PA01-wt (Pseudomonas aeruginosa, PA01WT) is 0.25 to 0.5 µM (≈ 0.117 to 0.234 µg/mL); with MDR P. aeruginosa PA 923 (Pseudomonas aeruginosa) it was 32 µM (≈ 15 µg/mL).
In the case of Kanamycin, the MIC is 128 µM in the test on MDR P. aeruginosa PA 927; 128 µM in the test with MDR P. aeruginosa PA 919; above 512 µM with MDR P. aeruginosa PA253; 64 µM in the test with P. aeruginosa PA01-wt; 256 µM in the test with MDR P. aeruginosa PA 923. In addition, in the test on MDR P. aeruginosa PA 910 (antibiotic alone, as listed in the FIC table), the “MIC against PA910 in μM (antibiotics, head of Table 4)” value is 128 to 256 µM. Further, the “MIC PA 910” value in the test on MDR P. aeruginosa PA 910 (conventional antibiotics, microdilution, Mueller-Hinton broth, 2–5 10^5 CFU/ml, 18 h at 37°C, read visually, at least three repeats (n = 3)) lay within 128 to 256 µM. Also, the “MIC PA 915” value against MDR P. aeruginosa PA 915 is 256 to 512 µM.
